Tests used:
[1] = test system: Citrobacter koseri (CKR) isolates; assay: MIC of compounds alone and combined with antibacterials, broth microdilution (CLSI); assay type: cell-based
Method: (§1) Method 2: MIC of Compounds Alone and Combined with Antibacterials Against Bacterial Isolates
(§2) Compounds of the present invention were assessed against genotyped bacterial strains (Table 3, 4) alone or in combination with an antibacterial (Table 2). […] Log phase bacterial suspensions were adjusted to a final density of 5.10^5 CFU/mL in cation-adjusted Mueller-Hinton broth (ca-MHB; Becton-Dickinson and Company) and added to each well (98 μL). Microplates were incubated for 16-20 h at 35° C. in ambient air. The MIC of the compounds was defined as the lowest concentration of said compounds that prevented bacterial growth as read by visual inspection. The MIC of ATB at each compound concentration was defined as the lowest concentration of ATB that prevented bacterial growth as read by visual inspection.

[2] = test system: Morganella morganii (MMO) isolates; assay: as above; assay type: cell-based
Method: as §1, §2

## CC(C)(O/N=C(\C(=O)N[C@@H]1C(=O)N2C(C(=O)[O-])=C(C[n+]3ccccc3)CS[C@H]12)c1csc(N)n1)C(=O)O [CAZ, Ceftazidime]
[1]; CKO ROU, AF2 @ 8 μg/mL
  MIC ATB in combination: 1 µg/mL
[1]; CKO ROU, AF3 @ 8 μg/mL
  MIC ATB in combination: 1 µg/mL
[1]; CKO UFR149, AF2 @ 8 μg/mL
  MIC ATB in combination: <0.25 µg/mL
[1]; CKO UFR149, AF3 @ 8 μg/mL
  MIC ATB in combination: <0.25 µg/mL
[1]; CKO UFR150, AF2 @ 8 μg/mL
  MIC ATB in combination: 4 µg/mL
[1]; CKO UFR150, AF3 @ 8 μg/mL
  MIC ATB in combination: 4 µg/mL
[1]; strain CKO ROU, genotype TEM-1, SHV-12, CTX-M-15, OXA-1, OXA-48
  MIC: 1 µg/mL
[1]; strain CKO UFR149, genotype OXA-48
  MIC: >128 µg/mL
[1]; strain CKO UFR150, genotype TEM-1, OXA-48
  MIC: 4 µg/mL
[2]; MMO 200321, AF2 @ 8 μg/mL
  MIC ATB in combination: <=0.25 μg/mL
[2]; MMO 200321, AF3 @ 8 μg/mL
  MIC ATB in combination: <=0.25 μg/mL
[2]; MMO UFR144, AF2 @ 8 μg/mL
  MIC ATB in combination: <=0.25 μg/mL
[2]; MMO UFR144, AF3 @ 8 μg/mL
  MIC ATB in combination: <=0.25 μg/mL
[2]; MMO UFR240, AF2 @ 8 μg/mL
  MIC ATB in combination: <=0.25 μg/mL
[2]; MMO UFR240, AF3 @ 8 μg/mL
  MIC ATB in combination: <=0.25 μg/mL
[2]; MMO UFR241, AF2 @ 8 μg/mL
  MIC ATB in combination: <=0.25 μg/mL
[2]; MMO UFR241, AF3 @ 8 μg/mL
  MIC ATB in combination: <=0.25 μg/mL
[2]; MMO UFR242, AF2 @ 8 μg/mL
  MIC ATB in combination: <=0.25 μg/mL
[2]; MMO UFR242, AF3 @ 8 μg/mL
  MIC ATB in combination: <=0.25 μg/mL
[2]; MMO UFR243, AF2 @ 8 μg/mL
  MIC ATB in combination: <=0.25 μg/mL
[2]; MMO UFR243, AF3 @ 8 μg/mL
  MIC ATB in combination: <=0.25 μg/mL
[2]; MMO UFR244, AF2 @ 8 μg/mL
  MIC ATB in combination: <=0.25 μg/mL
[2]; MMO UFR244, AF3 @ 8 μg/mL
  MIC ATB in combination: <=0.25 μg/mL
[2]; MMO UFR245, AF2 @ 8 μg/mL
  MIC ATB in combination: <=0.25 μg/mL
[2]; MMO UFR245, AF3 @ 8 μg/mL
  MIC ATB in combination: <=0.25 μg/mL
[2]; MMO UFR246, AF2 @ 8 μg/mL
  MIC ATB in combination: <=0.25 μg/mL
[2]; MMO UFR246, AF3 @ 8 μg/mL
  MIC ATB in combination: <=0.25 μg/mL
[2]; MMO UFR247, AF2 @ 8 μg/mL
  MIC ATB in combination: <=0.25 μg/mL
[2]; MMO UFR247, AF3 @ 8 μg/mL
  MIC ATB in combination: <=0.25 μg/mL
[2]; strain MMO 200321, genotype TEM-1, CTX-M-15, OXA-1
  MIC: 16 µg/mL
[2]; strain MMO UFR144, genotype TEM-1, CTX-M-15
  MIC: 8 µg/mL
[2]; strain MMO UFR145, with AF2 @ 8 μg/mL
  MIC ATB in combination: >128 µg/mL
[2]; strain MMO UFR145, with AF3 @ 8 μg/mL
  MIC ATB in combination: >128 µg/mL
[2]; strain MMO UFR240, genotype CTX-M-9
  MIC: 0.5 µg/mL
[2]; strain MMO UFR241, genotype TEM-1, CTX-M-15
  MIC: 8 µg/mL
[2]; strain MMO UFR242, genotype TEM-52
  MIC: 32 µg/mL
[2]; strain MMO UFR243, genotype DHA-1
  MIC: 1 µg/mL
[2]; strain MMO UFR244, genotype DHA-1
  MIC: 0.5 µg/mL
[2]; strain MMO UFR245, genotype DHA-1
  MIC: 8 µg/mL
[2]; strain MMO UFR246, genotype DHA-1
  MIC: 4 µg/mL
[2]; strain MMO UFR247, genotype DHA-1
  MIC: 0.5 µg/mL
